Experimental data from patent publication US8318781B2, “G-protein-conjugated receptor agonist” (Japan Science and Technology Agency, priority 2007, dated 2012).
pEC50: −log10 of the molar value.

How the values were obtained:
Assay type in all cases: cell-based
human GPR120 (hGPR120) [1] = biological target: T1, human GPR120 (hGPR120) (Homo sapiens, UniProt Q5NUL3); assay: Determination of intracellular Ca2+ concentration (FLIPR), cell line GPR120/Flp-in; conditions: for [Ca^2+]/GPR120/Flp-In 10 μM (ratio vs. LA): relative fluorescence intensity vs LA at 10 μM
T1 construct: expressed in transfected cells; doxycycline-inducible expression vector
T1 sequence (Q5NUL3 1-361): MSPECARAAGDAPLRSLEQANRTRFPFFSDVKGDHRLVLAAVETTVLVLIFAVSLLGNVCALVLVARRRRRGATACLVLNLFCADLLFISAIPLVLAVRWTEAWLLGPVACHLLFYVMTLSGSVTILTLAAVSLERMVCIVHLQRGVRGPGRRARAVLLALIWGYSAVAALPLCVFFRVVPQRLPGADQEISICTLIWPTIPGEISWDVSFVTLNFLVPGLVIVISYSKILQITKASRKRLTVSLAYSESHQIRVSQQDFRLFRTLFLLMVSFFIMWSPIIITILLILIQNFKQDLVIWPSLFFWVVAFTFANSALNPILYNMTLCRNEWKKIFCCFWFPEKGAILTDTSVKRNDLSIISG
Method: (§1) (1) In this test, The cell lines TXGPR40, TXGPR120 and GPR120/Flp-in were plated onto a collagen-coated black 96-well plate in 2×10^5 cells/well. The 96-well plates containing the cells were centrifuged and treated with Doxycycline (final concentration 10 μg/mL), incubated in a CO2 incubator for 21 hours, then used for assay.
(§2) (2) The ligand used in this test includes NCP04, NCP14, NCG20, NCG21, NCG22, NCG23, NCP02, NCP03, NCP05, NCP06, NCG14, NCG17, NCG19, NCG28, NCG29, NCG30, NCG31, NCG34, NCG35, NCG37, NCG38, NCG44, NCG45, NCG46, and NCG54. Each ligand was dissolved in DMSO and adjusted to the concentration of 10 mM, then diluted with Hanks' Balanced Salt Solution (pH 7.4) containing 20 mM HEPES (referred to as FLIPR buffer hereinafter) to the final concentration of 1 to 100 μM. 1% DMSO was used as the negative control, and LA was used as the positive control.
(§3) The ligands and controls were placed in different 96-well plates from the plates for the cells.
(§4) (3) The 96-well plate containing the cells was removed from the CO2 incubator. A fluorescent dye prepared in a twofold higher concentration (Ca Assay Kit Component A diluted with FLIPR Buffer) was added in 50 μL/well, then allowed to stand in the dark at room temperature for one hour.
(§5) (4) After one hour, the 96-well plate containing the cells and the 96-well plate in which ligands and controls were prepared were set on FLIPR (Fluorometric Imaging Plate Reader) for determination.
(§6) (5) Fluorometry using FLIPR was carried out at a laser output of 1.0 W for five minutes. […] after the start of the determination, the ligand (25 μL) was added dropwise to the cell plate at a rate of 50 μL/sec. The intensity of fluorescence was automatically digitized by the application program installed in the FLIPR from the image taken by the CCD camera (with exposure time of 0.40 sec). The interval of data sampling was one second for the initial one minute after the start of operation, and six seconds for the subsequent four minutes.
(§7) (6) The maximum fluorescence intensity was obtained from the data showing the change in the fluorescence intensity over time observed in each well. The maximum fluorescence intensity was plotted against ligand concentration, and pEC50 was calculated. The ratio of the fluorescence intensity for each ligand to LA at 10 μM was calculated as the relative intensity of each ligand.

human GPR40 (hGPR40) [2] = biological target: T2, human GPR40 (hGPR40) (Homo sapiens, UniProt O14842); assay: Determination of intracellular Ca2+ concentration (FLIPR), cell line TXGPR40; conditions: for [Ca^2+]/GPR40 10 μM (ratio vs. LA): relative fluorescence intensity vs LA at 10 μM, TXGPR40 cells
T2 construct: expressed in transfected cells; doxycycline-inducible expression vector
Method: as §1, §2, §3, §4, §5, §6, §7

human GPR120 (hGPR120) [3] = biological target: T1, human GPR120 (hGPR120); assay: ERK assay, screening for GPR120 ligands in cell line TXGPR120;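 as to ERK/GPR120 10 μM: signals normalized between DMSO and PMA controls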; conditions: for ERK activation for GPR120 (in words) / ERK/GPR120 10 μM / ERK/GPR120 100 μM: TXGPR120 cells; for ERK activation for GPR120 (in words): FIGS. 5-8; for ERK/GPR120 10 μM: ligand 10 μM; for ERK/GPR120 10 μM / ERK/GPR120 100 μM: class relative to LA; for ERK/GPR120 100 μM: ligand 100 μM
Method: (§8) This Test 1 was carried out by using the following materials and methods.
(§9) (1) In this test, the cell lines TXGPR40 and TXGPR120 were plated in 35-mm dishes in 5×10^5 cells/per dish.
(§10) Each ligand was dissolved in DMSO, diluted tenfold with the medium to make the total amount of 100 μl. DMSO was used as the negative control, and PMA (phorbol-12-myristate-13-acetate) was used as the positive control.
(§11) (3) The medium was removed from the dish of the cell to reduce the total amount of liquid to 0.9 ml.
(§12) (4) The ligand solution was added dropwise to the cell solution, and dispersed by gently shaking the dish, and allowed to react at room temperature.
(§13) (5) After 5 minutes of reaction, the medium was discarded, and the remaining medium on the dish was removed on ice using an aspirator.
(§14) (6) 150 μl of Lysis buffer (50 mM HEPES (pH 7.0), 150 mM NaCl, 10% glycerol, 1% NonidetP-40, 2 mM MgCl2, 1 mM EDTA, 100 mM NaF, 10 mM sodium phosphate, 1 mM Na3VO4, 20 mM β-glycerophosphate, and Proteinase inhibitor) were added, then the cells were collected using a cell scraper.
(§15) (1) The crude enzyme solution mixed with SDS Sample Buffer was subjected to ultrasonication with a sonifier, then incubated at 90° C. for five minutes.
(§16) (2) The mixture was vortexed and centrifuged at 15,000 rpm for five minutes at 4° C.
(§17) (3) The supernatant of the centrifuged sample was applied to two 7.5% acrylamide gel slabs placed in an electrophoresis tank filled with 1×SDS-PAGE Running Buffer (25 mM Tris, 0.2 M Glycin, and 1% SDS). Electrophoresis was carried out under a constant current of 40 mA for about 80 to 90 minutes.
(§18) (1) A PVDF membrane cut in the same size as the gel slab was immersed in methanol for about 15 seconds and then shaken in Transfer Buffer C solution (25 mM Tris, 0.02% SDS, 2% methanol and 40 mM 6-aminohexanoic acid) at room temperature to swell for 15 minutes. Filter paper for blotting was cut into a 10-cm square.
(§19) (2) On the blotting apparatus were placed sequentially two pieces of filter paper immersed in A solution (0.3 M Tris, 0.02% SDS and 2% methanol), two pieces of filter paper immersed in B solution (25 mM Tris, 0.02% SDS and 2% methanol), and the membrane thereon. The gel slab after electrophoresis, and finally two pieces of filter paper immersed in C solution was placed thereon, and the apparatus was closed.
(§20) (3) The protein was transferred to the membrane at 15 V for 30 minutes.
(§21) (1) The following procedure was all carried out at room temperature. After the protein transfer, the membrane was placed into a vial containing 1×TTBS (0.2 M Tris, 1.5 M NaCl, 0.2% Tween 20) and washed for 15 minutes.
(§22) (2) TTBS was discarded, and about 10 ml of Block Ace was added and blocked on a shaker for one hour.
(§23) (1) The primary antibodies (p44/42 MAP Kinase Antibody and Phospho-p44/42 MAP Kinase Antibody) were each diluted 1000-fold with TTBS.
(§24) (2) After blocking, the Block Ace solution was removed, the solution of the primary antibody was added and allowed to react on the shaker for two hours.
(§25) (1) The secondary antibody (Anti-rabbit Ig, Horseradish Peroxidase linked F(ab′)2 fragments) was diluted 5000-fold with TTBS.
(§26) (2) The primary antibody solution was removed and the membrane was washed three times on the shaker in TTBS for five to ten minutes each.
(§27) (3) TTBS was removed and the solution of secondary antibody was added and left for 1 hour on the shaker.
(§28) (1) 2 ml each of Detection Reagent 1 and Detection Reagent 2 from ECL kit were mixed together on ice.
(§29) (2) The solution of secondary antibody was removed from the membrane reacted with the secondary antibody and then washed three times on the shaker in TTBS for five minutes each.
(§30) (3) The liquid was thoroughly removed from the membrane, which was then placed in a plastic bag, and 2 ml of the Detection Reagent mixture was added per each membrane.
(§31) (4) The membrane was kept in contact with a film in the cassette for one to five minutes, and the film was developed using an automatic developing machine.

human GPR120 (hGPR120) [4] = biological target: T1, human GPR120 (hGPR120); assay: Determination of intracellular Ca2+ concentration (FLIPR), cell line TXGPR120; conditions: for agonistic activity for hGPR120 (in words): cells in which GPR120 has been transgenically expressed; for [Ca^2+]/GPR120 10 μM (ratio vs. LA): relative fluorescence intensity vs LA at 10 μM
Method: as §1, §2, §3, §4, §5, §6, §7

human GPR40 (hGPR40) [5] = biological target: T2, human GPR40 (hGPR40); assay: ERK assay, screening for GPR40 ligands in cell line TXGPR40; conditions: TXGPR40 cells; for ERK activation for GPR40 (in words): FIGS. 1-4; for ERK/GPR40 100 μM: ligand 100 μM
Method: as §8, §9, §10, §11, §12, §13, §14, §15, §16, §17, §18, §19, §20, §21, §22, §23, §24, §25, §26, §27, §28, §29, §30, §31

T2 sequence (O14842 whole entry): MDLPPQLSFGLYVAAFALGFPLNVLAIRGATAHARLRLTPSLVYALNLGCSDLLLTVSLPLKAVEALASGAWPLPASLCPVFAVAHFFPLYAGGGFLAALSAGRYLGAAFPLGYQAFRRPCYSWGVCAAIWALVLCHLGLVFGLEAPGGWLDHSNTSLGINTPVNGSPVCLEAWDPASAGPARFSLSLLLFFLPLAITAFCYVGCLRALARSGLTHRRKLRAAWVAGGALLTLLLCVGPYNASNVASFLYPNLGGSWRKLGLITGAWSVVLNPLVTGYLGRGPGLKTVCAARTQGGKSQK

| EC50 (human GPR120 (hGPR120) [1]; GPR120/Flp-in cells, maximum fluorescence intensity vs ligand concentration, read-out: [Ca^2+]/GPR120/Flp-In pEC50 (converted)) | [Ca^2+]/GPR120/Flp-In 10 μM (ratio vs. LA) (human GPR120 (hGPR120) [1]; GPR120/Flp-in cells) | [Ca^2+]/GPR40 10 μM (ratio vs. LA) (human GPR40 (hGPR40) [2]) | selectivity for GPR120 in ERK assay (in words) (human GPR120 (hGPR120) [3]; GPR120 versus GPR40) | ERK activation for GPR120 (in words) (human GPR120 (hGPR120) [3]) | ERK/GPR120 10 μM (human GPR120 (hGPR120) [3]) | ERK/GPR120 100 μM (human GPR120 (hGPR120) [3]) | EC50 (human GPR120 (hGPR120) [4]; TXGPR120 cells, maximum fluorescence intensity vs ligand concentration, read-out: [Ca^2+]/GPR120 pEC50 (converted)) | agonistic activity for hGPR120 (in words) (human GPR120 (hGPR120) [4]) | [Ca^2+]/GPR120 10 μM (ratio vs. LA) (human GPR120 (hGPR120) [4]; TXGPR120 cells) | ERK activation for GPR40 (in words) (human GPR40 (hGPR40) [5]) | ERK/GPR40 100 μM (human GPR40 (hGPR40) [5]; class relative to LA) | pEC50 (human GPR120 (hGPR120) [1]) | pEC50 (human GPR40 (hGPR40) [2]) | agonistic activity for GPR40 (in words) (human GPR40 (hGPR40) [2]; cells in which GPR40 has been transgenically expressed) | pEC50 (human GPR120 (hGPR120) [4]) | ERK/GPR40 10 μM (human GPR40 (hGPR40) [5]; ligand 10 μM, class relative to LA) | Compound | selectivity between GPR40 and GPR120 (in words), from Tables 3 and 4 (human GPR120 (hGPR120) [4]; GPR40 versus GPR120, Ca2+ and ERK results) |
| --- | --- | --- | --- | --- | --- | --- | --- | --- | --- | --- | --- | --- | --- | --- | --- | --- | --- | --- |
| 3.72 µM | 0.88 | 0.01 | selective for GRP120 | strongly activate ERK | ++ (++ denotes 50 to 100% of LA) | +++ (+++ denotes a higher value than LA) | 15.5 µM | exhibit a similar effect | 0.71 | strongly activated ERK | + (+ denotes 0 to 100% of LA) | – | – | – | – | – | O=C(O)CCCc1ccc(OCCN(c2ccccc2)c2cccnc2)cc1 [NCG30] | acting relatively mildly for GPR40 but acting strongly for GPR120 |
| – | 0.73 | 0.32 | – | strongly activate ERK | +++ (+++ denotes a higher value than LA) | +++ (+++ denotes a higher value than LA) | – | exhibit a similar effect | 0.61 | strongly activated ERK | +++ (+++ denotes a higher value than LA) | 5.16 | 4.72 | showed a specific reactivity | 4.77 | +++ (+++ denotes a higher value than LA) | O=C(O)CCCc1ccc(OCCN(c2ccccc2)c2nc3ccccc3s2)cc1 [NCG31] | – |
